The record followed here is patent US20240277902A1, “METHOD FOR MANUFACTURING PERIPHERAL NERVE-MIMICKING MICROTISSUE AND USES THEREOF” (INNOSTEM BIO, priority 2021, published 2024).

This experiment deals with constituent cells in the peripheral nerve-mimicking microtissue. As to the kind of experiment: Cytoprotection by NAC and DEX in suspension culture (LIVE/DEAD, immunofluorescence). The class given is cell-based. To be noted: 1 mM NAC, 3 days. The source says: As a result of limitation in oxygen and nutrient exchange during the production process of peripheral nerve-mimicking microtissues, ROS accumulates in tissues, leading to cell damage and death. The Example is intended to present a cytoprotection method by dexamethasone (DEX) and N-acetylcysteine (NAC) to inhibit cell damage and death. PNSCs collected from the monolayer culture environment are suspended in a suspension culture medium at a density of 1.0E+06/mL. […] 1.0×10^5 cells per cm^2 area of a culture vessel is seeded in the ULA T75 flask (SPL Life Sciences) culture vessel. 1 mM NAC, 1 μM DEX, NAC and DEX were added simultaneously in 15 mL of suspension culture medium and cultured for 3 days. Cell death was assessed by LIVE/DEAD staining, and, for cell death, the survival rate was evaluated by calculating the total number of cells stained with DAPI and counting the number of cells that are positive for ethidium homodimer-1 (EthD-1). Moreover, the expression of p38 MAPK and cleaved caspase, which are factors that regulate cell death, and the degree of expression of p-Akt, an anti-cell death regulating factor, were evaluated through immunofluorescence staining.

As to `CC(=O)N[C@@H](CS)C(=O)O` [NAC, N-acetylcysteine], the “cytoprotective effect on constituent cells in the microtissue (survival rate, LIVE/DEAD, EthD-1)” value (1 μM DEX, or both in suspension culture medium) is on record as “protective effect”. For the same compound, the “expression of Hif, p38 MAPK, and cleaved caspase (cell death proteins)” value (1 μM DEX, or both, immunofluorescence staining) is reported as “significantly inhibit”.
